This passage reports IC50 results from patent publication US20260325533A1, “CDK INHIBITOR COMPOUNDS” (ALEKSIA THERAPEUTICS, INC., priority 2023, published 2026).

Structures are written as SMILES. Like-named read-outs stand apart in the source and are kept apart here. Some results are limits rather than exact numbers.

Holding throughout (format): biochemical
The target of test [1] is CDK1/CCNB1 (Homo sapiens, UniProt P06493). Nature of the test: CDK1 homogeneous time-resolved fluorescence (HTRF) kinase assay. As to conditions: CDK1/CCNB. The gist of the method:
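High-ATP (1 mM) HTRF assay with 0.5 nM CDK1/cyclin B1 and 50 nM ULight-4E-BP1 (Thr37/46) substrate, 60 min at 23 °C after 20-min compound preincubation. IC50 values come from dose-response curves.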

In test [2] the target is CDK6/CCND1 (Homo sapiens, UniProt Q00534). Nature of the test: CDK6 homogeneous time-resolved fluorescence (HTRF) kinase assay. As to conditions: CDK6/CCND. The gist of the method:
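Recombinant CDK6/CCND1 (1 nM final) was preincubated with compound for 20 min at 23 °C in HEPES buffer with MgCl2, EGTA, DTT and Tween 20. Kinase reaction then ran 60 min at 23 °C with 1 mM ATP and 50 nM ULight-4E-BP1 (Thr37/46) peptide, and was stopped with EDTA.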
For orientation: Time-resolved FRET reads energy transfer from a long-lived donor to a nearby acceptor.

Test [3] addresses CDK2/CCNE1 (Homo sapiens, UniProt P24941). Description: CDK2 homogeneous time-resolved fluorescence (HTRF) kinase assay. Conditions: CDK2/CCNE. Summed up:
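IC50 derived from 11-point, half-log dilutions (usually top 10 μM) of compound, 1% DMSO. Kinase (3 nM CDK2/CCNE1) was preincubated with compound 20 min, then phosphorylated 50 nM ULight-4E-BP1 peptide at 1 mM ATP for 60 min, 23 °C. Europium-antibody TR-FRET read after EDTA stop.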

For test [4], the target named is CDK4/CCND3 (Homo sapiens, UniProt P11802). Nature of the test: CDK4 homogeneous time-resolved fluorescence (HTRF) kinase assay. Conditions: CDK4/CCND. Summed up:
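HTRF kinase assay, CDK4/CCND3 1.5 nM, ATP 1 mM, ULight-4E-BP1 peptide 50 nM, 23 °C, 60 min reaction after 20 min preincubation. Eu-anti-pThr37/46 antibody detection. 11-pt half-log curves from 10 μM → IC50.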

Where [5] appears, read: >250 nM, read-out: CDK1/CCNB IC50 >250 nM.
Where [6] appears, read: >250 nM, 1 mM ATP, read-out: CDK6/CCND IC50, >250 nM.
Setting [7] is: 25-250 nM, read-out: CDK2/CCNE IC50, 25-250 nM.
The mark [8] stands for this setting: >250 nM, read-out: CDK4/CCND IC50, >250 nM.
Where [9] appears, read: <25 nM, read-out: CDK2/CCNE IC50, <25 nM.
The mark [10] stands for this setting: >250 nM marked x, read-out: CDK1/CCNB IC50 >250 nM.
Where [11] appears, read: 25-250 nM marked x, read-out: CDK6/CCND IC50 25-250 nM.
The mark [12] stands for this setting: 25-250 nM marked x, read-out: CDK2/CCNE IC50 25-250 nM.
[13] abbreviates: 25-250 nM marked x, read-out: CDK4/CCND IC50 25-250 nM.
The mark [14] stands for this setting: <25 nM, read-out: CDK6/CCND IC50 <25 nM.
The mark [15] stands for this setting: 25-250 nM marked x, read-out: CDK1/CCNB IC50 25-250 nM.
[16] abbreviates: <25 nM, read-out: CDK2/CCNE IC50 <25 nM.
Where [17] appears, read: <25 nM, read-out: CDK4/CCND IC50 <25 nM.
Where [18] appears, read: >250 nM marked x, read-out: CDK6/CCND IC50 >250 nM.
Where [19] appears, read: >250 nM marked x, read-out: CDK4/CCND IC50 >250 nM.

Sequence of CDK1/CCNB1 (P06493 whole entry): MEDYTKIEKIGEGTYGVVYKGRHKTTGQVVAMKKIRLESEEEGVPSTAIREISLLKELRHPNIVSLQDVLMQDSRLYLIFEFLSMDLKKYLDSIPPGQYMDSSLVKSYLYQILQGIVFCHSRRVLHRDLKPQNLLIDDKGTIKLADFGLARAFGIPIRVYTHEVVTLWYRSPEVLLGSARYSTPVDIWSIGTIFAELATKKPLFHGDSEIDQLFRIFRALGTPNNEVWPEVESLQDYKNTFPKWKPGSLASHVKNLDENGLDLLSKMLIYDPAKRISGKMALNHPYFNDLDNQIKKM
Sequence of CDK1/CCNB1 (P14635 whole entry partner): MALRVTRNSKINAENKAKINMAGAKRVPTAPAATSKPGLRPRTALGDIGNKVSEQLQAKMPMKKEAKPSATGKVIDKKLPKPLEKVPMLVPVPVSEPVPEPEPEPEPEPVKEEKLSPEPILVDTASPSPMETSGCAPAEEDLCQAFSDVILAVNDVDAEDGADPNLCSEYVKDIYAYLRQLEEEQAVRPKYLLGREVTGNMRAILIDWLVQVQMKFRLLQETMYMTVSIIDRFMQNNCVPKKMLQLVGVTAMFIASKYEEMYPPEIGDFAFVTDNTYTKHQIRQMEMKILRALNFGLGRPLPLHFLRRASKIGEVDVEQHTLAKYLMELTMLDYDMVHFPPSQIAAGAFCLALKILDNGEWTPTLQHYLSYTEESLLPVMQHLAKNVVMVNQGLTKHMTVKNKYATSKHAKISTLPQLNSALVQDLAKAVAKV
Sequence of CDK6/CCND1 (Q00534 whole entry): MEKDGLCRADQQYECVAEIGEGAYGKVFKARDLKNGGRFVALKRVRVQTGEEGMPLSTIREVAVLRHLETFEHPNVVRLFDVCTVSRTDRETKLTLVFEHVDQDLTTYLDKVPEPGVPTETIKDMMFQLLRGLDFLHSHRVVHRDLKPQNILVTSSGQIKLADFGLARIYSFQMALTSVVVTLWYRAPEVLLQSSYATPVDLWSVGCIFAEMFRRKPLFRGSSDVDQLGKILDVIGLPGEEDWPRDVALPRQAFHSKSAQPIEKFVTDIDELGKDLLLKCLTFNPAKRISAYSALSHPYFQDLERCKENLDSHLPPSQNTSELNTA
Sequence of CDK6/CCND1 (P24385 whole entry partner): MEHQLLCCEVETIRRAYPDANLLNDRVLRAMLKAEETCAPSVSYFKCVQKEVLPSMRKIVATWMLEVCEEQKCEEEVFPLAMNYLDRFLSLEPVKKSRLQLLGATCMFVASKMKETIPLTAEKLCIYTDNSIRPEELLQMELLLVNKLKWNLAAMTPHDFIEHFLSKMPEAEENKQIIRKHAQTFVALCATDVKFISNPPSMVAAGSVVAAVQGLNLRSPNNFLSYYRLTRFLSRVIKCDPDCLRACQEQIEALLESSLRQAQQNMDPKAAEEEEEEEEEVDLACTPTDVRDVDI
Sequence of CDK4/CCND3 (P11802 whole entry): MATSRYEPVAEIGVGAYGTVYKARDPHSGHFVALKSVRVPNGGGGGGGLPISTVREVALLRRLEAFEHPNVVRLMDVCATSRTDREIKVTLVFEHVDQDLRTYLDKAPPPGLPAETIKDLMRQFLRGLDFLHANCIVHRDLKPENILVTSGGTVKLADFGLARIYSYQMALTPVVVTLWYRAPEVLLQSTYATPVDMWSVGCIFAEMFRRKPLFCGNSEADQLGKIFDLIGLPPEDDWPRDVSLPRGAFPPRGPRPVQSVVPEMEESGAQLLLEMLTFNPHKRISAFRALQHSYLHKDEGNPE
Sequence of CDK4/CCND3 (P30281 whole entry partner): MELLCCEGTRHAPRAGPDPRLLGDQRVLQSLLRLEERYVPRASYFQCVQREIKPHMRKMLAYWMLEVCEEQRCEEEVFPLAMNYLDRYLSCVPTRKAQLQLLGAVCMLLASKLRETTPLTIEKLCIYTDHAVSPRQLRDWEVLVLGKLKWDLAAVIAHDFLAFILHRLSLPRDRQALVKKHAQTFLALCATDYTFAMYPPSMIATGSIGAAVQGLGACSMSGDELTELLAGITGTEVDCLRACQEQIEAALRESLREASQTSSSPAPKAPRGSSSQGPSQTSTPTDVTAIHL

Consider `N#Cc1ccc(C#Cc2nccc3cnc(Nc4ccc(S(=O)(=O)N5CCOCC5)cc4)cc23)cc1` [Ex 934, 4-((7-((4-(morpholinosulfonyl)phenyl)amino)-2,6-naphthyridin-1-yl)ethynyl)benzonitrile], for which the IC50 is above 250 nM in test [1] (setting [5]), above 250 nM in test [2] (setting [6]), 25 to 250 nM in test [3] (setting [7]) and above 250 nM in test [4] (setting [8]).

For the compound `N#Cc1ccc(C#Cc2nccc3cnc(Nc4ccc(S(=O)(=O)Nc5ccccn5)cc4)cc23)cc1` [Ex 935, 4-((5-((4-cyanophenyl)ethynyl)-2,6-naphthyridin-3-yl)amino)-N-(pyridin-2-yl)benzenesulfonamide], the IC50 is above 250 nM in test [1] (setting [5]), above 250 nM in test [2] (setting [6]), 25 to 250 nM in test [3] (setting [7]) and above 250 nM in test [4] (setting [8]).

`Cc1cc(C)nc(NS(=O)(=O)c2ccc(Nc3cc4c(C#Cc5ccc(C#N)cc5)nccc4cn3)cc2)n1` [Ex 936, 4-((5-((4-cyanophenyl)ethynyl)-2,6-naphthyridin-3-yl)amino)-N-(4,6-dimethylpyrimidin-2-yl)benzenesulfonamide]: the IC50 in test [1] (setting [5]) was above 250 nM; in test [2] (setting [6]), above 250 nM; in test [3] (setting [9]), below 25 nM; in test [4] (setting [8]), above 250 nM.

`Cc1c(-c2nccc3cnc(Nc4ccc(C(=O)Nc5ccccc5)cc4)cc23)ccc2c1cnn2CC(C)(C)O` [Ex 937, 4-((5-(1-(2-hydroxy-2-methylpropyl)-4-methyl-1H-indazol-5-yl)-2,6-naphthyridin-3-yl)amino)-N-phenylbenzamide]: the IC50 is above 250 nM in test [1] (setting [5]), above 250 nM in test [2] (setting [6]), below 25 nM in test [3] (setting [9]) and above 250 nM in test [4] (setting [8]).

Turning to `Cc1c(-c2nccc3cnc(Nc4ccc(NS(C)(=O)=O)cc4)cc23)ccc2c1cnn2CC(C)(C)O` [Ex 938, N-(4-((5-(1-(2-hydroxy-2-methylpropyl)-4-methyl-1H-indazol-5-yl)-2,6-naphthyridin-3-yl)amino)phenyl)methanesulfonamide], the IC50 in test [1] (25-250 nM, read-out: CDK1/CCNB IC50, 25-250 nM) was 25 to 250 nM; in test [2] (25-250 nM, 1 mM ATP, read-out: CDK6/CCND IC50, 25-250 nM) it was 25 to 250 nM; in test [3] (setting [9]), below 25 nM; in test [4] (25-250 nM, read-out: CDK4/CCND IC50, 25-250 nM) it was 25 to 250 nM.

As for `Cc1c(-c2nccc3cnc(Nc4ccnc(OCc5ccccc5)c4)cc23)ccc2c1cnn2CC(C)(C)O` [Ex 939, 1-(5-(7-((2-(benzyloxy)pyridin-4-yl)amino)-2,6-naphthyridin-1-yl)-4-methyl-1H-indazol-1-yl)-2-methylpropan-2-ol], the IC50 in test [1] (setting [5]) is above 250 nM; in test [2] (setting [6]), above 250 nM; in test [3] (setting [7]), 25 to 250 nM; in test [4] (setting [8]), above 250 nM.

As to `CS(=O)(=O)Nc1ccc(Nc2cc3c(C#Cc4ccc(C#N)cc4)nccc3cn2)cc1` [Ex 940, N-(4-((5-((4-cyanophenyl)ethynyl)-2,6-naphthyridin-3-yl)amino)phenyl)methanesulfonamide], the IC50 in test [1] (setting [5]) is above 250 nM; in test [2] (setting [6]) it was above 250 nM; in test [3] (setting [7]), 25 to 250 nM; in test [4] (setting [8]) it was above 250 nM.

For `COc1ccc(C#Cc2nccc3cnc(Nc4ccc(S(C)(=O)=O)cc4)cc23)cc1` [Ex 941, 5-((4-methoxyphenyl)ethynyl)-N-(4-(methylsulfonyl)phenyl)-2,6-naphthyridin-3-amine], the IC50 in test [1] (setting [5]) was above 250 nM; in test [2] (setting [6]) it was above 250 nM; in test [3] (setting [7]) it was 25 to 250 nM; in test [4] (setting [8]) it was above 250 nM.

In the case of `CS(=O)(=O)c1cccc(Nc2cc3c(C#Cc4ccc(C#N)cc4)nccc3cn2)c1` [Ex 942, 4-((7-((3-(methylsulfonyl)phenyl)amino)-2,6-naphthyridin-1-yl)ethynyl)benzonitrile], the IC50 in test [1] (setting [5]) was above 250 nM; in test [2] (setting [6]), above 250 nM; in test [3] (setting [7]), 25 to 250 nM; in test [4] (setting [8]) it was above 250 nM.

In the case of `Cn1cc(Nc2cc3c(C#Cc4ccc(C#N)cc4)nccc3cn2)cn1` [Ex 943, 4-((7-((1-methyl-1H-pyrazol-4-yl)amino)-2,6-naphthyridin-1-yl)ethynyl)benzonitrile], the IC50 was above 250 nM in test [1] (setting [5]), above 250 nM in test [2] (setting [6]), 25 to 250 nM in test [3] (setting [7]) and above 250 nM in test [4] (setting [8]).

In the case of `CS(=O)(=O)N1CCC(Nc2cc3c(N4CCC(O)CC4)nccc3cn2)CC1` [Example 1, 1-(7-((1-(methylsulfonyl)piperidin-4-yl)amino)-2,6-naphthyridin-1-yl)piperidin-4-ol], the IC50 in test [1] (setting [10]) was above 250 nM; in test [2] (setting [11]), 25 to 250 nM; in test [3] (setting [12]), 25 to 250 nM; in test [4] (setting [13]) it was 25 to 250 nM.

As for `CS(=O)(=O)N1CCC(Nc2cc3c(N4CCCC4)nccc3cn2)CC1` [Example 2, N-(1-(methylsulfonyl)piperidin-4-yl)-5-(pyrrolidin-1-yl)-2,6-naphthyridin-3-amine], the IC50 in test [1] (setting [10]) is above 250 nM; in test [2] (setting [14]), below 25 nM; in test [3] (setting [12]) it was 25 to 250 nM; in test [4] (setting [13]), 25 to 250 nM.

In the case of `C=CS(=O)(=O)N1CCC(Nc2cc3c(N4CCCCC4)nccc3cn2)CC1` [Example 3, 5-(piperidin-1-yl)-N-(1-(vinylsulfonyl)piperidin-4-yl)-2,6-naphthyridin-3-amine], the IC50 in test [1] (setting [15]) is 25 to 250 nM; in test [2] (setting [11]), 25 to 250 nM; in test [3] (setting [16]), below 25 nM; in test [4] (setting [13]), 25 to 250 nM.

As for `CC(C)c1nccc2cnc(NC3CCN(S(C)(=O)=O)CC3)cc12` [Example 6, 5-isopropyl-N-(1-(methylsulfonyl)piperidin-4-yl)-2,6-naphthyridin-3-amine], the IC50 was 25 to 250 nM in test [1] (setting [15]), 25 to 250 nM in test [2] (setting [11]), below 25 nM in test [3] (setting [16]) and below 25 nM in test [4] (setting [17]).

On to `CC#Cc1nccc2cnc(Nc3ccc(S(C)(=O)=O)cc3)cc12` [Example 7, N-(4-(methylsulfonyl)phenyl)-5-(prop-1-yn-1-yl)-2,6-naphthyridin-3-amine], for which the IC50 in test [1] (setting [10]) was above 250 nM; in test [2] (setting [18]) it was above 250 nM; in test [3] (setting [16]) it was below 25 nM; in test [4] (setting [19]), above 250 nM.

Consider `CS(=O)(=O)N1CCC(Nc2cc3c(OCc4ccccc4)nccc3cn2)CC1` [Example 11, 5-(benzyloxy)-N-(1-(methylsulfonyl)piperidin-4-yl)-2,6-naphthyridin-3-amine], for which the IC50 in test [1] (setting [15]) is 25 to 250 nM; in test [2] (setting [14]) it was below 25 nM; in test [3] (setting [12]) it was 25 to 250 nM; in test [4] (setting [17]), below 25 nM.

With `C=CS(=O)(=O)c1ccc(Nc2cc3c(N4CCC(C#N)CC4)nccc3cn2)cc1` [Example 15, 1-(7-((4-(vinylsulfonyl)phenyl)amino)-2,6-naphthyridin-1-yl)piperidine-4-carbonitrile], the IC50 is above 250 nM in test [1] (setting [10]), above 250 nM in test [2] (setting [18]), 25 to 250 nM in test [3] (setting [12]) and above 250 nM in test [4] (setting [19]).

As for `CS(=O)(=O)N1CCC(Nc2cc3c(N4CCCCC4)nc(C=O)cc3cn2)CC1` [Example 18, 7-((1-(methylsulfonyl)piperidin-4-yl)amino)-1-(piperidin-1-yl)-2,6-naphthyridine-3-carbaldehyde], the IC50 was 25 to 250 nM in test [1] (setting [15]), below 25 nM in test [2] (setting [14]), below 25 nM in test [3] (setting [16]) and below 25 nM in test [4] (setting [17]).

On to `C=CS(=O)(=O)N1CCC(Nc2cc3c(C4=CCCCC4)nccc3cn2)CC1` [Example 20, 5-(cyclohex-1-en-1-yl)-N-(1-(vinylsulfonyl)piperidin-4-yl)-2,6-naphthyridin-3-amine], for which the IC50 in test [1] (setting [15]) is 25 to 250 nM; in test [2] (setting [14]), below 25 nM; in test [3] (setting [16]), below 25 nM; in test [4] (setting [17]), below 25 nM.
